From US20060039996A1, “Method for treating sepsis” (priority 2004, published 2006)

Tested on: B. Pseudomonas aeruginosa
Assay: Induced peritoneal sepsis, survival
Assay type: in vivo
Conditions: for Survival (animals alive): bacteria + Gentamycin 1.0 mg/ml i.p.
Experimental: Mice (C3H) were induced with B. Pseudomonas aeruginosa to have peritoneal sepsis, with resultant infection injury to the lung. Fox-Dewhurst, R., et al., Am. J Respir. Crit. Care Med., 155:2030-2040 (1997). Groups of animals (n=4 per group) were treated with doses of bacteria (108-1010 cfu/ml) in the peritoneum. Injection bacteria was prepared in saline at 10×10^7 cfu/ml. 0.3 ml of bacterial solution was injected into the peritoneal cavity. After three minutes, 0.3 ml of saline or 0.5 ml of electrolyzed saline solution was injected intraperitoneally. A group of animals was treated with Gentamycin as a positive control to compare the effectiveness of 25%, 50%, and 100% electrolyzed saline solutions. This group of animals was treated at the time of bacterial inoculation with Gentamycin at a concentration of 1.0 mg/ml intraperitoneally.
Six study groups of mice were studied: saline control, Gentamycin positive control, bacteria plus 25% electrolyzed saline solution, bacteria plus 50% electrolyzed saline solution, bacteria plus 100% electrolyzed saline solution, and bacteria plus saline.

Substance: Gentamycin
- Survival (animals alive) (24 hrs, n=4): 4
- clinical appearance of animals (48 hours, Gentamicin 1.0 mg/ml i.p.): still normal with no sign of sickness
- Survival (animals alive) (48 hrs, n=4): 4
- survival rate (72 hours, Gentamicin 1.0 mg/ml i.p.): 50%
- animals died (72 hours, Gentamicin 1.0 mg/ml i.p., n=4): 2
- Survival (animals alive) (72 hrs, n=4): 2
